Source: publication PMC4865847, “Putative histidine kinase inhibitors with antibacterial effect against multi-drug resistant clinical isolates identified by in vitro and in silico screens” (Scientific Reports, 2016)
Converted amounts (≈) assume the structure as drawn. Where two headings read alike, the source gives them in different places.

Tests used:
Staphylococcus aureus = test: Antibacterial susceptibility testing (MIC/MBC), S. aureus; type: cell-based; conditions: Staphylococcus aureus
Experimental: (§1) Minimal inhibitory concentrations (MICs) were determined following a standard double-dilution method. […] For S. pneumoniae MICs were determined by adapting the standard double-dilution method to anaerobic conditions and of this microorganism (use of Todd Hewitt Yeast extract with 200 U/mL of catalase and continuous monitoring of growth).

E. coli PhoR (PhoR^E) = target: T1, E. coli PhoR (PhoR^E) (Escherichia coli, UniProt P08400); test: In vitro autophosphorylation kinase assay with γ-32P-ATP, PhoR^E; type: biochemical; conditions: for IC50: autophosphorylation, one time point (30 sec), 10% DMSO; for inhibition at 2000 µM: 2 mM, 30 sec, compared to negative control
T1 construct: The catalytic portion (DHp and CA domain) of E. coli PhoR (PhoR^E); made in house; host or cells: E. coli RIL
T1 sequence (P08400 210-425): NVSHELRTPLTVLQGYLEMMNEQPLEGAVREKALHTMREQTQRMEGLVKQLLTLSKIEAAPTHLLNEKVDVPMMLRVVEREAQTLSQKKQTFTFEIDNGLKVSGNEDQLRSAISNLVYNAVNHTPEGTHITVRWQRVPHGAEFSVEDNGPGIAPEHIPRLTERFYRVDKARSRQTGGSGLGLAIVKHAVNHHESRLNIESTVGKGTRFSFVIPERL
Experimental: (§2) To evaluate the inhibitory capacity of selected hits from DSF, SBVS and LBSS in vitro autophosphorylation kinase assays with γ-^32P-ATP were performed as previously described. Ligands were dissolved in 100% DMSO. […] Controls lacking ligands contained an equal concentration of DMSO. Inhibition of autophosphorylation was determined by incubating 0.12 mg/ml (≈4 μM) HK and up to 20 mM fragment in kinase buffer (50 mM Tris HCl, pH 8.5, 50 mM KCl, 5 mM MgCl2, 0.5 mM EDTA and 0.1 mM DTT). Autophosporylation reactions were initiated by addition of 0.1 μCi/μl γ-^32P-ATP containing from 0.03 to 0.06 μM ATP (final concentrations). Autophosphorylation was quenched with 2xSDS-PAGE sample buffer supplemented with 50 mM EDTA. […] After electrophoresis, the bottoms of the gels were removed to lower the background from the unincorporated radiolabeled ATP. Gels were dried without staining on a Bio-Rad Gel Air drying system and the phosphorylated protein was quantified by phosphor-imaging. Prism GraphPad was used for curve fitting and statistical analysis.

S. pneumoniae WalK = target: T2, S. pneumoniae WalK (Streptococcus pneumoniae, UniProt Q8DPL8); test: In vitro autophosphorylation kinase assay with γ-32P-ATP, WalK; type: biochemical; conditions: autophosphorylation, one time point (30 sec), 10% DMSO
T2 construct: WalK (amino acids from 208 to 449); N-terminal His6-3C site of vector pOPINF (own knowledge of the vector); made in house; host or cells: E. coli RIL
T2 sequence (Q8DPL8 208-449): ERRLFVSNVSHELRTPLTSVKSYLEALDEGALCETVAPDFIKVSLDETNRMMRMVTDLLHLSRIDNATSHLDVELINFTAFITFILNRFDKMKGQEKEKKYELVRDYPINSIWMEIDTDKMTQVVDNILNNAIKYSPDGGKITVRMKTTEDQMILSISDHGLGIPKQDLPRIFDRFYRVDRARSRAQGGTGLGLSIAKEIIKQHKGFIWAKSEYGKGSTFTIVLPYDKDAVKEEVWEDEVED
Experimental: as §2

Escherichia coli = test: Antibacterial susceptibility testing (MIC/MBC), E. coli; type: cell-based; conditions: Escherichia coli; for MIC: read-out: MIC E. coli CFT 073
Experimental: as §1

[1] = system: Staphylococcus epidermidis; test: Antibacterial susceptibility testing (MIC/MBC), S. epidermidis; type: cell-based; conditions: Staphylococcus epidermidis
Experimental: as §1

S. aureus PhoR (PhoR^S) = S. aureus PhoR (PhoR^S) (Staphylococcus aureus, UniProt Q2FXN7); test: In vitro autophosphorylation kinase assay with γ-32P-ATP, PhoR^S; type: biochemical; conditions: for IC50: autophosphorylation, one time point (30 sec), 10% DMSO; for inhibition at 2000 µM: read-out: inhibition of PhoR^S autophosphorylation
S. aureus PhoR (PhoR^S), sequence (Q2FXN7 entry or part of it): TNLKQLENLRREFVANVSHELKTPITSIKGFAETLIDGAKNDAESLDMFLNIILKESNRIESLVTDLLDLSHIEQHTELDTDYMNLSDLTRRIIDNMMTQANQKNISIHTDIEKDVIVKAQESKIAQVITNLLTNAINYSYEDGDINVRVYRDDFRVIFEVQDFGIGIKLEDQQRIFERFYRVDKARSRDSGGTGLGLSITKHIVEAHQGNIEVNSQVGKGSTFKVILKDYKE
Experimental: To evaluate the inhibitory capacity of selected hits from DSF, SBVS and LBSS in vitro autophosphorylation kinase assays with γ-^32P-ATP were performed as previously described. Ligands were dissolved in 100% DMSO. […] Controls lacking ligands contained an equal concentration of DMSO. Inhibition of autophosphorylation was determined by incubating 0.12 mg/ml (≈4 μM) HK and up to 20 mM fragment in kinase buffer (50 mM Tris HCl, pH 8.5, 50 mM KCl, 5 mM MgCl2, 0.5 mM EDTA and 0.1 mM DTT). Autophosporylation reactions were initiated by addition of 0.1 μCi/μl γ-^32P-ATP containing from 0.03 to 0.06 μM ATP (final concentrations). Autophosphorylation was quenched with 2xSDS-PAGE sample buffer supplemented with 50 mM EDTA. Samples were applied without heating to 15% (w/v) Tris-glycine SDS-polyacrylamide gels. After electrophoresis, the bottoms of the gels were removed to lower the background from the unincorporated radiolabeled ATP. Gels were dried without staining on a Bio-Rad Gel Air drying system and the phosphorylated protein was quantified by phosphor-imaging. Prism GraphPad was used for curve fitting and statistical analysis.

[2] = DSM20231, strain DSM 20231, read-out: MIC S. aureus DSM 20231
[3] = DSM20044, strain DSM 20044, read-out: MIC S. epidermidis DSM 20044

| Structure (SMILES) | MIC (Staphylococcus aureus; [2]) [µg/mL] | IC50 (E. coli PhoR (PhoR^E); IC50 PhoR^E) [µM] | MIC [1, 3] [µg/mL] | MIC (Escherichia coli; strain CFT 073) [µg/mL] | IC50 (S. aureus PhoR (PhoR^S); IC50 PhoR^S) [µM] | further results |
| --- | --- | --- | --- | --- | --- | --- |
| Nc1nc(-c2ccc(O)cc2)cs1 [F1.1] |  |  |  |  |  | MBC (Staphylococcus aureus; DSM20231, read-out: MBC S. aureus DSM 20231): > 500 µg/mL; IC50 (E. coli PhoR (PhoR^E); read-out: IC50 PhoR^E): > 2000 µM; IC50 (S. pneumoniae WalK; read-out: IC50 WalK): > 2000 µM; MBC (Escherichia coli; read-out: MBC E. coli CFT 073): > 500 µg/mL |
| Nc1nc(-c2ccc(Cl)cc2)cs1 [F1.2] | > 500 | > 2000 | > 500 | > 500 |  | IC50 (S. pneumoniae WalK; IC50 WalK): > 2000 µM |
| Cc1ccc(-c2csc(N)n2)cc1 [F1.3] | > 500 | > 2000 | 500 (≈ 2630 µM) | > 500 |  | IC50 (S. pneumoniae WalK; IC50 WalK): > 2000 µM; MBC ([1]; DSM20044, strain DSM 20044): 500 µg/mL (≈ 2630 µM) |
| Nc1ncc(-c2ccc(Br)cc2)s1 [F1.4] | > 500 | > 2000 | > 500 | > 500 |  | IC50 (S. pneumoniae WalK; IC50 WalK): > 2000 µM |
| Nc1nnc(-c2ccc(Br)cc2)o1 [F1.5] | > 500 | > 2000 | > 500 | > 500 |  | IC50 (S. pneumoniae WalK; IC50 WalK): > 2000 µM |
| CCN(Cc1ccc(C(=O)OC)cc1)c1cccc(NC(C)=O)c1 [S1.1] | > 500 | > 2000 | > 500 | > 500 | > 2000 |  |
| CC(=O)Nc1ccc(-c2ccc(F)cc2)cc1 [S1.2] | > 500 | < 2000 | > 500 | > 500 |  | inhibition at 2000 µM (E. coli PhoR (PhoR^E)): > 75%; IC50 (S. aureus PhoR (PhoR^S); read-out: IC50 PhoR^S): < 2000 µM; inhibition at 2000 µM (S. aureus PhoR (PhoR^S)): > 75% |
| CC(=O)Nc1ccc(NC(=O)c2cccc(F)c2)cc1 [S1.3] | > 500 | > 2000 | > 500 | > 500 | > 2000 |  |
| CC(=O)Nc1cccc(Cc2cccc(NC(C)=O)c2)c1 [S1.4] | > 500 | > 2000 | > 500 | > 500 | > 2000 |  |
| CC(=O)Nc1ccc[n+](CC(=O)c2ccc(F)cc2)c1 [S1.5] | > 500 | > 2000 | > 500 | > 500 | > 2000 |  |
| CC(=O)Nc1ccc(C(O)c2ccc(NC(C)=O)cc2)cc1 [S1.6] | > 500 | > 2000 | > 500 | > 500 | > 2000 |  |
| CC(=O)Nc1cccc(OCc2ccc([N+](=O)[O-])cc2)c1 [S1.8] | > 500 | > 2000 | > 500 | > 500 | > 2000 |  |
| CC(=O)Nc1cccc(S(=O)(=O)c2cccc(NC(C)=O)c2)c1 [S1.9] | > 500 | > 2000 | > 500 | > 500 | > 2000 |  |
| CC(=O)Nc1ccc2c(c1)C(=Nc1ccc(F)cc1)c1ccccc1-2 [S1.10] | > 500 | > 2000 | > 500 | > 500 | > 2000 |  |
| CC(=O)Nc1cccc(C=Cc2ccc([N+](=O)[O-])cc2)c1 [S1.11] | > 500 | < 2000 | > 500 | > 500 |  | inhibition at 2000 µM (E. coli PhoR (PhoR^E)): > 75%; IC50 (S. aureus PhoR (PhoR^S); read-out: IC50 PhoR^S): < 2000 µM; inhibition at 2000 µM (S. aureus PhoR (PhoR^S)): > 75% |
| CC(=O)Nc1ccc(C(=O)C(O)c2ccc(NC(C)=O)cc2)cc1 (stereo not shown) [S1.12] | > 500 | > 2000 | > 500 | > 500 | > 2000 |  |
| CC(C)(C)c1ccc(NS(=O)(=O)c2ccc(N)cc2)cc1 [S1.15] | > 500 | > 2000 | > 500 | > 500 |  | inhibition at 2000 µM (E. coli PhoR (PhoR^E)): > 40%; IC50 (S. aureus PhoR (PhoR^S); read-out: IC50 PhoR^S): < 2000 µM; inhibition at 2000 µM (S. aureus PhoR (PhoR^S)): > 75% |
| CC(=O)Nc1cccc(OCOc2ccc([N+](=O)[O-])cc2)c1 [S1.16] | > 500 | > 2000 | > 500 | > 500 | > 2000 |  |
| CC(=O)Nc1cccc(OCc2cccc([N+](=O)[O-])c2)c1 [S1.17] | > 500 | > 2000 | > 500 | > 500 | > 2000 |  |
| COc1cc(NCc2ccccc2)ccc1NC(C)=O [S1.18] | > 500 | > 2000 | > 500 | > 500 | > 2000 |  |
| CC(=O)NC(Cc1ccccc1)C(=O)Nc1cccc(C)c1 (stereo not shown) [S1.19] | > 500 | > 2000 | > 500 | > 500 | > 2000 |  |
| CC(=O)Nc1ccc2c(c1)Cc1cc(Br)ccc1-2 [S1.20] |  |  |  |  | > 2000 | MIC (Staphylococcus aureus; DSM20231, read-out: MIC S. aureus DSM 20231): > 500 µg/mL; IC50 (E. coli PhoR (PhoR^E); read-out: IC50 PhoR^E): > 2000 µM; MIC ([1]; DSM20044, read-out: MIC S. epidermidis DSM 20044): > 500 µg/mL; MIC (Escherichia coli): > 500 µg/mL |
| O=C(NCc1cccc(Cl)c1)Nc1ccccc1 [S1.22] | > 500 | > 2000 | > 500 | > 500 | > 2000 |  |
| CCC(c1cccc(Br)c1)C(C(C)=O)c1ccc(OC)cc1 (stereo not shown) [S1.23] | > 500 | > 2000 | > 500 | > 500 | > 2000 |  |
| CCn1c2ccccc2c2cc(NC(C)=O)ccc21 [S1.24] | > 500 | > 2000 | > 500 | > 500 | > 2000 |  |
| CC(=O)c1cccc(NC(=O)N(C)Cc2ccccc2)c1 [S1.25] | > 500 | > 2000 | > 500 | > 500 | > 2000 |  |
